Measurements from PubChem BioAssay (NCI).
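Five compound concentrations were applied to cells in 96-well plates for 48 hours; endpoints were derived by simple linear interpolation of the resulting dose-response curve. GI50 marks 50% less growth. Definition used: TGI = concentration required for complete inhibition of growth.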

Columns and labels:
Assay in all cases: NCI anticancer screen, dose series, 48 h
MCF7 breast = tested on: MCF7 breast
SNB-75 CNS = tested on: SNB-75 CNS
SN12C renal = tested on: SN12C renal
OVCAR-3 ovarian = tested on: OVCAR-3 ovarian
KM12 colon = tested on: KM12 colon
HCT-15 colon = tested on: HCT-15 colon
NCI-H23 lung = tested on: NCI-H23 lung
COLO 205 colon = tested on: COLO 205 colon
MDA-MB-435 = tested on: MDA-MB-435
M14 melanoma = tested on: M14 melanoma
HCT-116 colon = tested on: HCT-116 colon
MALME-3M melanoma = tested on: MALME-3M melanoma
RPMI-8226 leukemia = tested on: RPMI-8226 leukemia
BT-549 breast = tested on: BT-549 breast
SK-MEL-2 melanoma = tested on: SK-MEL-2 melanoma
HS 578T breast = tested on: HS 578T breast
SK-OV-3 ovarian = tested on: SK-OV-3 ovarian
A498 renal = tested on: A498 renal
HOP-92 NSCLC = tested on: HOP-92 NSCLC
UO-31 renal = tested on: UO-31 renal
SK-MEL-5 melanoma = tested on: SK-MEL-5 melanoma
OVCAR-5 ovarian = tested on: OVCAR-5 ovarian
MOLT-4 leukemia = tested on: MOLT-4 leukemia
PC-3 prostate = tested on: PC-3 prostate
U251 CNS = tested on: U251 CNS
K-562 leukemia = tested on: K-562 leukemia
LOX IMVI melanoma = tested on: LOX IMVI melanoma
SF-539 CNS = tested on: SF-539 CNS
HT29 colon = tested on: HT29 colon
SW-620 colon = tested on: SW-620 colon
NCI/ADR-RES ovarian = tested on: NCI/ADR-RES ovarian
EKVX NSCLC = tested on: EKVX NSCLC
SF-295 CNS = tested on: SF-295 CNS
HOP-62 NSCLC = tested on: HOP-62 NSCLC
CCRF-CEM leukemia = tested on: CCRF-CEM leukemia
OVCAR-8 ovarian = tested on: OVCAR-8 ovarian
OVCAR-4 ovarian = tested on: OVCAR-4 ovarian
DU-145 prostate = tested on: DU-145 prostate
SK-MEL-28 melanoma = tested on: SK-MEL-28 melanoma
ACHN renal = tested on: ACHN renal
HCC-2998 colon = tested on: HCC-2998 colon
786-0 renal = tested on: 786-0 renal
A549 NSCLC = tested on: A549 NSCLC
NCI-H522 lung = tested on: NCI-H522 lung
TK-10 renal = tested on: TK-10 renal
SF-268 CNS = tested on: SF-268 CNS
SNB-19 CNS = tested on: SNB-19 CNS
NCI-H226 lung = tested on: NCI-H226 lung
MDA-MB-231 breast = tested on: MDA-MB-231 breast
T-47D breast = tested on: T-47D breast
HL-60(TB) leukemia = tested on: HL-60(TB) leukemia
UACC-257 melanoma = tested on: UACC-257 melanoma
CAKI-1 renal = tested on: CAKI-1 renal
SR leukemia = tested on: SR leukemia
NCI-H460 lung = tested on: NCI-H460 lung
UACC-62 melanoma = tested on: UACC-62 melanoma
IGROV1 ovarian = tested on: IGROV1 ovarian
RXF 393 renal = tested on: RXF 393 renal

## COc1ccc(C(O)c2cc3c(N)c(C(=O)Nc4cccc(Br)c4)sc3nc2C)cc1 (stereo not given)
MCF7 breast
  GI50: 0.125 µM
  TGI: > 58.4 µM
SNB-75 CNS
  GI50: 0.0693 µM
SN12C renal
  GI50: 0.21 µM
  TGI: > 31.9 µM
OVCAR-3 ovarian
  GI50: 0.0949 µM
  TGI: 0.322 µM
KM12 colon
  GI50: 0.117 µM
HCT-15 colon
  GI50: 0.121 µM
  TGI: > 43 µM
NCI-H23 lung
  GI50: 0.181 µM
  TGI: > 60.4 µM
COLO 205 colon
  GI50: 0.127 µM
  TGI: 0.773 µM
MDA-MB-435
  GI50: 0.0202 µM
  TGI: 0.05 µM
M14 melanoma
  GI50: 0.0318 µM
  TGI: 14.1 µM
HCT-116 colon
  GI50: 0.107 µM
  TGI: 16.8 µM
MALME-3M melanoma
  GI50: 0.799 µM
  TGI: > 52.7 µM
RPMI-8226 leukemia
  GI50: 0.371 µM
  TGI: 33.6 µM
BT-549 breast
  GI50: 0.17 µM
  TGI: > 23.2 µM
SK-MEL-2 melanoma
  GI50: 0.572 µM
  TGI: > 21.9 µM
HS 578T breast
  GI50: 0.101 µM
  TGI: > 21.7 µM
SK-OV-3 ovarian
  GI50: 0.197 µM
  TGI: > 65.1 µM
A498 renal
  GI50: 0.0536 µM
  TGI: 0.231 µM
HOP-92 NSCLC
  GI50: 0.554 µM
  TGI: 21.3 µM
UO-31 renal
  GI50: 0.271 µM
  TGI: > 31.3 µM
SK-MEL-5 melanoma
  GI50: 0.123 µM
  TGI: 0.47 µM
OVCAR-5 ovarian
  GI50: 0.216 µM
  TGI: > 100 µM
MOLT-4 leukemia
  GI50: 0.14 µM
  TGI: > 52.8 µM
PC-3 prostate
  GI50: 0.204 µM
  TGI: > 100 µM
U251 CNS
  GI50: 0.119 µM
  TGI: > 41.1 µM
K-562 leukemia
  GI50: 0.107 µM
  TGI: > 100 µM
LOX IMVI melanoma
  GI50: 0.154 µM
  TGI: > 32.4 µM
SF-539 CNS
  GI50: 0.0248 µM
  TGI: 0.0833 µM
HT29 colon
  GI50: 0.109 µM
SW-620 colon
  GI50: 0.126 µM
  TGI: > 100 µM
NCI/ADR-RES ovarian
  GI50: 0.104 µM
  TGI: 4.87 µM
EKVX NSCLC
  GI50: 0.197 µM
  TGI: > 100 µM
SF-295 CNS
  GI50: 0.11 µM
  TGI: > 31.7 µM
HOP-62 NSCLC
  GI50: 0.207 µM
  TGI: > 42.2 µM
CCRF-CEM leukemia
  GI50: 0.121 µM
  TGI: > 100 µM
OVCAR-8 ovarian
  GI50: 0.139 µM
  TGI: > 55.6 µM
OVCAR-4 ovarian
  GI50: 0.224 µM
  TGI: > 84.2 µM
DU-145 prostate
  GI50: 0.128 µM
  TGI: 11.9 µM
SK-MEL-28 melanoma
  GI50: 22.3 µM
  TGI: > 100 µM
ACHN renal
  GI50: 0.23 µM
  TGI: > 46.2 µM
HCC-2998 colon
  GI50: 0.121 µM
  TGI: 15.5 µM
786-0 renal
  GI50: 0.225 µM
  TGI: > 39.4 µM
A549 NSCLC
  GI50: 0.14 µM
  TGI: > 100 µM
NCI-H522 lung
  GI50: 0.0814 µM
  TGI: 1.85 µM
TK-10 renal
  GI50: 9.26 µM
  TGI: > 95.1 µM
SF-268 CNS
  GI50: 0.29 µM
  TGI: > 32.6 µM
SNB-19 CNS
  GI50: 0.159 µM
  TGI: > 100 µM
NCI-H226 lung
  GI50: 0.18 µM
  TGI: > 47 µM
MDA-MB-231 breast
  GI50: 0.104 µM
  TGI: 1.63 µM
T-47D breast
  GI50: 22.5 µM
  TGI: > 100 µM
HL-60(TB) leukemia
  GI50: 0.085 µM
  TGI: 0.242 µM
UACC-257 melanoma
  GI50: 6.4 µM
  TGI: > 50.4 µM
CAKI-1 renal
  GI50: 0.141 µM
  TGI: > 32 µM
SR leukemia
  GI50: 0.0979 µM
  TGI: > 32.7 µM
NCI-H460 lung
  GI50: 0.109 µM
  TGI: 3.61 µM
UACC-62 melanoma
  GI50: 0.309 µM
  TGI: > 38.6 µM
IGROV1 ovarian
  GI50: 0.231 µM
  TGI: > 100 µM

## O=C(/C=C\c1ccnc2ccccc12)c1ccc([N+](=O)[O-])cc1
MCF7 breast
  GI50: 1.64 µM
  TGI: 3.54 µM
SNB-75 CNS
  GI50: > 75.4 µM
  TGI: > 100 µM
SN12C renal
  GI50: 16.1 µM
  TGI: > 64.2 µM
OVCAR-3 ovarian
  GI50: 7.23 µM
  TGI: 43.2 µM
KM12 colon
  GI50: 3 µM
  TGI: 11.1 µM
HCT-15 colon
  GI50: 2.55 µM
  TGI: 9.2 µM
NCI-H23 lung
  GI50: 5.54 µM
  TGI: 59.5 µM
COLO 205 colon
  GI50: 23.1 µM
  TGI: > 100 µM
MDA-MB-435
  GI50: 2.24 µM
  TGI: 6.55 µM
M14 melanoma
  GI50: 4.94 µM
  TGI: 19.4 µM
HCT-116 colon
  GI50: 1.59 µM
  TGI: 3.15 µM
MALME-3M melanoma
  GI50: 57.2 µM
  TGI: > 100 µM
RPMI-8226 leukemia
  GI50: 1.87 µM
  TGI: 4.6 µM
BT-549 breast
  GI50: 11.2 µM
  TGI: 27.4 µM
SK-MEL-2 melanoma
  GI50: > 100 µM
  TGI: > 100 µM
HS 578T breast
  GI50: 27.3 µM
  TGI: > 96 µM
SK-OV-3 ovarian
  GI50: > 100 µM
  TGI: > 100 µM
A498 renal
  GI50: 1.68 µM
  TGI: > 100 µM
HOP-92 NSCLC
  GI50: 3.99 µM
  TGI: > 65.3 µM
UO-31 renal
  GI50: 4.99 µM
  TGI: > 50.7 µM
SK-MEL-5 melanoma
  GI50: 3.63 µM
  TGI: 22.3 µM
OVCAR-5 ovarian
  GI50: > 60.6 µM
  TGI: > 100 µM
MOLT-4 leukemia
  GI50: 4.21 µM
  TGI: > 83 µM
PC-3 prostate
  GI50: 8.62 µM
  TGI: 48.2 µM
U251 CNS
  GI50: 10.6 µM
  TGI: 41.6 µM
K-562 leukemia
  GI50: 2.47 µM
  TGI: 18 µM
LOX IMVI melanoma
  GI50: 1.83 µM
  TGI: 3.75 µM
SF-539 CNS
  GI50: 6.82 µM
  TGI: 24.9 µM
HT29 colon
  GI50: 2.36 µM
  TGI: 5.37 µM
SW-620 colon
  GI50: 1.99 µM
  TGI: 4.79 µM
NCI/ADR-RES ovarian
  GI50: 8.68 µM
  TGI: > 100 µM
SF-295 CNS
  GI50: 23.4 µM
  TGI: > 100 µM
HOP-62 NSCLC
  GI50: > 38.4 µM
  TGI: > 80.1 µM
CCRF-CEM leukemia
  GI50: 3.41 µM
  TGI: > 48.1 µM
OVCAR-8 ovarian
  GI50: 12.4 µM
  TGI: > 100 µM
OVCAR-4 ovarian
  GI50: 3.71 µM
  TGI: > 100 µM
DU-145 prostate
  GI50: 43.1 µM
  TGI: > 100 µM
SK-MEL-28 melanoma
  GI50: 20.5 µM
  TGI: > 83.2 µM
ACHN renal
  GI50: 14.6 µM
  TGI: > 100 µM
HCC-2998 colon
  GI50: 6.05 µM
  TGI: 29.9 µM
786-0 renal
  GI50: 16.9 µM
  TGI: > 89 µM
A549 NSCLC
  GI50: > 41.1 µM
  TGI: > 100 µM
NCI-H522 lung
  GI50: 15.2 µM
  TGI: > 100 µM
TK-10 renal
  GI50: 21.3 µM
  TGI: > 100 µM
SF-268 CNS
  GI50: 21.6 µM
  TGI: > 82.8 µM
RXF 393 renal
  GI50: 12 µM
  TGI: > 66 µM
SNB-19 CNS
  GI50: 14.8 µM
  TGI: > 68.3 µM
NCI-H226 lung
  GI50: 6.35 µM
  TGI: > 100 µM
MDA-MB-231 breast
  GI50: 8.63 µM
  TGI: 38.7 µM
T-47D breast
  GI50: 4.19 µM
  TGI: > 66.4 µM
HL-60(TB) leukemia
  GI50: 5.89 µM
  TGI: > 75.5 µM
UACC-257 melanoma
  GI50: 8.8 µM
  TGI: > 60.7 µM
CAKI-1 renal
  GI50: 13.2 µM
  TGI: > 100 µM
SR leukemia
  GI50: 2.28 µM
  TGI: 7.37 µM
NCI-H460 lung
  GI50: > 68.1 µM
  TGI: > 100 µM
UACC-62 melanoma
  GI50: 12.5 µM
  TGI: > 86.3 µM
IGROV1 ovarian
  GI50: 16 µM
  TGI: > 79.6 µM
